Measurements taken from publication PMC5665024 (Chemical research in toxicology, 2017).

Experiments:
[1] = biological target: human DNA polymerase β (pol β) (Homo sapiens, UniProt P06746); assay: Steady-state primer extension assay, pol β; assay type: biochemical
[2] = biological target: T1, human DNA polymerase λ (pol λ) (Homo sapiens, UniProt Q9UGP5); assay: Steady-state primer extension assay, pol λ; assay type: biochemical
T1 sequence (Q9UGP5 1-575): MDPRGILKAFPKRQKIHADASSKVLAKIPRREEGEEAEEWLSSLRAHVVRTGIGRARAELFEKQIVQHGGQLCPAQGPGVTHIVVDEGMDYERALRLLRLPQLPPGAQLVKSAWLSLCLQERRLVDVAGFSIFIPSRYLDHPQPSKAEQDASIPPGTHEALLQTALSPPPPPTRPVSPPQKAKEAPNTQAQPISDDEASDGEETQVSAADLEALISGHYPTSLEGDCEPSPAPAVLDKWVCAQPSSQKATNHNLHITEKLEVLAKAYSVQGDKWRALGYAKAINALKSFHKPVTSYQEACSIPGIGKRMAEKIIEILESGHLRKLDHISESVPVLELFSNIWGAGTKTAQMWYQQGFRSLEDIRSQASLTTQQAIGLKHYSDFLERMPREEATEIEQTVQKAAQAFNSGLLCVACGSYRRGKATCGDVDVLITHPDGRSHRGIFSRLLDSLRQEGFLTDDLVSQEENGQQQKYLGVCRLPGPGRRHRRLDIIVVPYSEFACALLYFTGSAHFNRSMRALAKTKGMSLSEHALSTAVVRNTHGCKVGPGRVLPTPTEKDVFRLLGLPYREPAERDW

pol λ binding to DNA = biological target: T2, pol λ binding to DNA (Homo sapiens, UniProt Q9UGP5); assay: Polymerase–DNA interaction, electrophoretic mobility shift assay, pol λ; conditions: for inhibition of DNA binding to polymerase (EMSA): honokiol up to 200 μM, polymerase in excess of DNA
T2 sequence (Q9UGP5 1-575): T1 sequence (Q9UGP5 1-575)

[3] = eq 3, factor on Km/Ki, 95% confidence limits
[4] = eq 3, residual catalysis with HNL bound, 95% confidence limits

C=CCc1ccc(O)c(-c2ccc(O)c(CC=C)c2)c1 [HNL, 2-(4-hydroxy-3-prop-2-enyl-phenyl)-4-prop-2-enyl-phenol]
IC50 [1]: 0.6 µM
Ki ([1]; Ki, hyperbolic mixed-type inhibition fit (eq 3), vs dCTP, 95% confidence limits): 4 µM
α [1, 3]: 0.55 (0.31, 0.79)
β [1, 4]: 0.20 (0.15, 0.25)
inhibition mechanism versus dCTP ([1]; steady-state kinetic analysis): mixed-type noncompetitive
IC50 [2]: 0.8 µM
Ki [2]: 8.3 µM
α [2, 3]: 0.51 (0.24, 0.78)
β [2, 4]: 0.07 (0.02, 0.12)
inhibition mechanism versus dCTP ([2]; steady-state kinetic analysis): mixed-type noncompetitive
Ki (pol λ binding to DNA): > 500 µM
inhibition of DNA binding to polymerase (EMSA) (pol λ binding to DNA; listed as Honokiol): does not inhibit DNA binding
inhibition of DNA binding to polymerase (EMSA) (pol λ binding to DNA; listed as honokiol): did not inhibit the binding of the DNA to the polymerase
